# Patent publication US20220281915A1, “COMPOSITIONS COMPRISING BOVINE ADRENAL MEDULLA 8-22 (BAM8-22) PEPTIDE ANALOGS AND METHODS OF USE” (OKYO Pharma Limited, priority 2019, published 2022)
# pEC50: −log10 of the molar value. Where two headings read alike, the source gives them in different places. Non-standard residues stand in square brackets, D forms with d. Residues, ends and D or L forms follow the SMILES beside them. No end group written: not given here. Nle = CCCC[C@H](N)C(=O)O
# What was measured:
# human MRGPRX1 receptor = human MRGPRX1 receptor (Homo sapiens, UniProt Q96LB2); test: DiscoverX calcium mobilization cell culture assay, agonist mode (FLIPR Tetra); format: cell-based; details: Table 2 initial screening data, agonist format, peptides
# Chain of human MRGPRX1 receptor (Q96LB2 whole entry): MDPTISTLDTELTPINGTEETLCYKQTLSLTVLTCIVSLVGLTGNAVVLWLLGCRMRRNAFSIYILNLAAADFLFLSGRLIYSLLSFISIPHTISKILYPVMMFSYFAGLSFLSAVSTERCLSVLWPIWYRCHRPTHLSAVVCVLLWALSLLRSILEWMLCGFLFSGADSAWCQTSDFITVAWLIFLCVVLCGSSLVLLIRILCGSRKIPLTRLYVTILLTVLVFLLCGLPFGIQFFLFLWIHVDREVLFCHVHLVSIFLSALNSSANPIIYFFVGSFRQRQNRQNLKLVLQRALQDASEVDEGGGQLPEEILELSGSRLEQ
# Protocol: DiscoverX® Calcium cell line overexpressing naturally Gq coupled, wildtype human MRGPRX1 receptor was used to detect calcium mobilization in response to agonist stimulation of the receptor. Cells were plated in a 384-well plate and incubated overnight at 37° C. and 5% CO2 to allow the cells to attach and grow. Culture media was removed and replaced with dye loading buffer from the Calcium No WashPLUS detection kit according to the recommended protocol. Cells were incubated with peptides to induce response and calcium mobilization was detected using a FLIPR® Tetra (Molecular Devices, Inc.).
# Compound activity was analyzed using Chemical and Biological Information System (CBIS) data analysis suite (ChemInnovation, CA). For agonist mode assays, percentage activity is calculated using the following formula: % Activity=100%×(mean RFU of test sample−mean RFU of vehicle control)/(mean MAX RFU control ligand−mean RFU of vehicle control). […] RFU means relative fluorescence units.
# mechanical allodynia [1] = details: rat, spinal nerve ligation, intrathecal; cited from earlier work
# mechanical allodynia [2] = details: mouse, chronic constriction injury, intrathecal; cited from earlier work
Molecule,pEC50 (human MRGPRX1 receptor),baseline nociception (mechanical allodynia [1]),mechanical allodynia (mechanical allodynia [1]),baseline nociception (mechanical allodynia [2]),mechanical allodynia (mechanical allodynia [2])
"VGRPEWWMDSQKRYG [OK-202, VGRPEWWMDSQKRYG (SEQ ID NO: 54)]",5.80,–,–,–,–
"CCCC[C@H](NC(=O)[C@H](Cc1c[nH]c2ccccc12)NC(=O)[C@H](Cc1c[nH]c2ccccc12)NC(=O)[C@H](CCC(=O)O)NC(=O)[C@@H]1CCCN1C(=O)[C@H](CCCNC(=N)N)NC(=O)CNC(=O)[C@@H](N)C(C)C)C(=O)N[C@@H](CC(=O)O)C(=O)N[C@@H](Cc1ccc(O)cc1)C(=O)N[C@@H](CCC(N)=O)C(=O)N[C@@H](CCCCN)C(=O)N[C@@H](CCCNC(=N)N)C(=O)N[C@@H](Cc1ccc(O)cc1)C(=O)NCC(=O)O [OK-205, VGRPEWW-Nle-DYQKRYG (SEQ ID NO: 22)] (H-VGRPEWW[Nle]DYQKRYG-OH; N-terminus and C-terminus assumed)",7.95,–,–,–,–
"GRPEWWMDYQKRY [OK-203, GRPEWWMDYQKRY (SEQ ID NO: 3)]",9.17,–,–,–,–
"CSCC[C@H](NC(=O)[C@H](Cc1c[nH]c2ccccc12)NC(=O)[C@H](Cc1c[nH]c2ccccc12)NC(=O)[C@H](CCC(=O)O)NC(=O)[C@@H]1CCCN1C(=O)[C@H](CCCNC(=N)N)NC(=O)CNC(=O)[C@H](N)C(C)C)C(=O)N[C@@H](CC(=O)O)C(=O)N[C@@H](Cc1ccc(O)cc1)C(=O)N[C@@H](CCC(N)=O)C(=O)N[C@@H](CCCCN)C(=O)N[C@@H](CCCNC(=N)N)C(=O)N[C@@H](Cc1ccc(O)cc1)C(=O)NCC(=O)O [OK-206, dV-GRPEWWMDYQKRY-dG (SEQ ID NO: 23)] (H-[dV]GRPEWWMDYQKRYG-OH; N-terminus and C-terminus assumed)",8.99,–,–,–,–
"VGRPEWWMDYQKRYG [BAM-8-22, VGRPEWWMDYQKRYG (SEQ ID NO: 21)]",8.88,did not affect baseline nociception,attenuates mechanical allodynia,did not affect baseline nociception,attenuates mechanical allodynia
